# From US20210382058A1, “PATIENT SELECTION FOR TREATMENT OF MYC POSITIVE CANCERS WITH INDENOISOQUINOLINES” (Purdue Research Foundation, priority 2020, published 2021)
# Key:
# [1] = tested on: MycG4 (MycPu22 DNA); test: 1H NMR titration of MycPu22 DNA; type: binding, human; conditions: 150 μM DNA, 25° C., pH 7, 100 mM K+
# Source text: The binding interactions of six selected indenoisoquinolines with MycG4 were examined using ^1H NMR titration experiments in K^+-containing solution. […] The binding appeared to be in the medium-to-fast exchange rate on the NMR time-scale, as shown by the broadening of DNA proton peaks at lower drug equivalence (0.5 and 1) and the sharpening at higher drug equivalence (2 and 3). […] The MycG4 complexes of the five MycG4-interactive indenoisoquinolines were monomeric in nature as shown by native EMSA gels (FIG. 13).
# All NMR experiments were conducted using a Bruker AV-500 spectrometer equipped with a Prodigy cryoprobe at 25° C. Watergate water suppression technique was used to suppress water signals. Briefly, each DNA sample was prepared to a final concentration of […] in 75 mM KCl, 25 mM phosphate buffer at pH 7.0, and containing 90/10% H2O/D2O. DNA samples were heated to 95° C. for 5 min then cooled slowly to room temperature for G4 formation. ^1H-NMR titrations were performed by adding increasing amounts of the compound (0.5 to 4 equivalents) to the oligonucleotide solution.
# [2] = biological target: MycPu22; test: Competition fluorescence displacement, competitor MycPu22; design: species or system human; conditions: competitor binding affinity; 20 nM 3′-TAMRA MycPu22, 20 nM compound, 20° C., pH 7, 100 mM K+
# Protocol: (§1) Using a competition fluorescence displacement assay, the binding selectivity of five indenoisoquinolines for MycG4 was determined as compared to a parallel K-Ras promoter G4, a hybrid telomeric G4, and double-stranded (ds) DNA at 1 and 5 equivalents of each compound (FIGS. 7 and 16A-16C). The 3′-TAMRA labeled MycPu22 DNA was used as the fluorescence probe, whose fluorescence was quenched upon the binding of indenoisoquinolines. Upon addition of unlabeled, non-fluorescent competitors (e.g. other DNA G4s and dsDNA), the TAMRA-labeled MycPu22 DNA is displaced by the competitor DNA for indenoisoquinoline binding and the initial high TAMRA-fluorescence is restored. The competition fluorescence displacement assay allows for a straightforward assessment of selective binding towards MycG4 vs. the competitors, i.e. MycG4s (parallel), K-Ras G4 (parallel), telomeric G4 (hybrid), and dsDNA. One and five compound equivalents were used to assess the selectivity of the strongest binding site and other binding sites of each indenoisoquinoline. […] As shown in the modeling study, the substituents on the A- and D-rings of indenoisoquinolines likely contribute to binding MycG4 by more optimal stacking interactions with the external G-tetrads. On the other hand, the increased size of the indenoisoquinoline ring system may hinder intercalation in dsDNA due to possible steric collision with the DNA backbone. […] 6-Substituted indenoisoquinolines were previously reported to bind to the c-Kit promoter G4s which were also primarily parallel.^17
# (§2) The competition fluorescence displacement experiments were performed on a Jasco FP-8300 Spectrofluorometer equipped with a temperature controller at 20° C. The stock solution containing 2 μM 3′-TAMRA-labelled MycPu22 oligonucleotide was diluted to 20 nM using 75 mM KCl, 25 mM phosphate buffer at pH 7.0. To check the binding selectivity of each compound to MycG4 DNA, 20 nM or 100 nM of the indenoisoquinoline was added to the DNA solution in a total volume of 1.6 mL in a quartz cell with a 10 mm path length. Subsequently, various unlabeled MycG4s (MycPu22 and MycPu28), K-Ras G4, telomeric G4 DNAs, or calf thymus dsDNA were gradually added to the complex solution. For each addition of the DNA, the sample was equilibrated at least 2 min. The fluorescence spectrum was recorded between 570 and 600 nm with an excitation wavelength of 555 nm, 10 nm bandwidths, 100 nm/min of scan speed, and 1 s of response time. The fluorescence intensities at the emission maximum (Δmax=580 nm) were plotted for figures. The competitor binding affinities (K, values) were calculated by
# (§3) using data from 20 nM compound. The C50 value was the concentration of the unlabeled competing DNA that recovers the fluorescence of the labelled DNA by 50%. [L] represents the ligand concentration that is a constant value of 20 nM. Kd,app values were obtained by fluorescence-based binding assay.
# [3] = biological target: MycPu28; test: Competition fluorescence displacement, competitor MycPu28; design: species or system human; conditions: competitor binding affinity; 20 nM 3′-TAMRA MycPu22, 20 nM compound, 20° C., pH 7, 100 mM K+
# Protocol: as §1, §2, §3
# [4] = biological target: K-RasG4 (parallel K-Ras promoter G4); test: Competition fluorescence displacement, competitor K-Ras G4; conditions: competitor binding affinity; 20 nM 3′-TAMRA MycPu22, 20 nM compound, 20° C., pH 7, 100 mM K+
# Protocol: as §1, §2, §3
# [5] = tested on: Telomeric G4 (hybrid); test: Competition fluorescence displacement, competitor telomeric G4; type: binding; conditions: for binding selectivity for parallel G4s over hybrid G4: competition fluorescence displacement, 1 and 5 equivalents; for Ki: competitor binding affinity, 20 nM 3′-TAMRA MycPu22, 20 nM compound, 20° C., pH 7, 100 mM K+
# Protocol: as §1, §2, §3
# [6] = tested on: calf thymus dsDNA; test: Competition fluorescence displacement, competitor dsDNA; type: binding; conditions: for binding selectivity for DNA G4s over dsDNA: competition fluorescence displacement, 1 and 5 equivalents; for Ki: competitor binding affinity, Ki refers to the base-pair concentration, 20 nM compound, 20° C., pH 7, 100 mM K+
# Protocol: as §1, §2, §3
binding to MycG4 by 1H NMR titration [1],Ki [2] [nM],Ki [3] [nM],Ki [4] [nM],binding selectivity for parallel G4s over hybrid G4 [5],Ki [5] [nM],Compound,binding selectivity for DNA G4s over dsDNA [6],Ki [6] [nM]
less well-defined MycG4 complexes,7,7,7,much less selectivity,14,COc1cnc2c(c1)C(=O)c1c-2n(CCCNC2=NCCS2)c(=O)c2cc([N+](=O)[O-])ccc12 [Compound 12],remarkable selectivity,3620
less well-defined MycG4 complexes,12,11,11,much less selectivity,28,COc1cnc2c(c1)C(=O)c1c-2n(CCCN2CCCC2)c(=O)c2cc([N+](=O)[O-])ccc12 [Compound 9],remarkable selectivity,5170
more specific binding to MycG4,16,18,21,marked selectivity,164,COc1cnc2c(c1)C(=O)c1c-2n(CCCNC(C)C)c(=O)c2cc(F)ccc12 [Compound 5],remarkable selectivity,~11000
more specific binding to MycG4,40,33,32,marked selectivity,286,CNCCCn1c2c(c3ccc(F)cc3c1=O)C(=O)c1cc(OC)cnc1-2 [Compound 6],remarkable selectivity,~12000

Compound,binding to MycG4 by 1H NMR titration [1],Ki [2] [nM],Ki [3] [nM],Ki [4] [nM],binding selectivity for parallel G4s over hybrid G4 [5],Ki [5] [nM],binding selectivity for DNA G4s over dsDNA [6],Ki [6] [nM]
O=C1c2ccccc2-c2c1c1ccccc1c(=O)n2CCCNCCO [Compound 13],more specific binding to MycG4,26,19,23,selectivity for parallel G4s over hybrid G4,146,much less selectivity against dsDNA,2140
